Data from US20080287653A1, “METHOD FOR PRODUCING INHIBITORS AND INHIBITORS FORMED THEREFROM” (THE UNIVERSITY OF AKRON, priority 2007, published 2008).
Marks after values point to notes of the source that are not given here. Non-standard residues stand in square brackets, D forms with d. Residues, ends and D or L forms follow the SMILES beside them. Lys(Thioacetyl) = CC(=S)NCCCC[C@H](N)C(=O)O

Legend:
[1] = biological target: T1, SIRT1 (Homo sapiens, UniProt Q96EB6); test: HPLC-based SIRT1 inhibition assay with purified GST-SIRT1; format: biochemical
T1 construct: made in house
T1 sequence (Q96EB6 1-747): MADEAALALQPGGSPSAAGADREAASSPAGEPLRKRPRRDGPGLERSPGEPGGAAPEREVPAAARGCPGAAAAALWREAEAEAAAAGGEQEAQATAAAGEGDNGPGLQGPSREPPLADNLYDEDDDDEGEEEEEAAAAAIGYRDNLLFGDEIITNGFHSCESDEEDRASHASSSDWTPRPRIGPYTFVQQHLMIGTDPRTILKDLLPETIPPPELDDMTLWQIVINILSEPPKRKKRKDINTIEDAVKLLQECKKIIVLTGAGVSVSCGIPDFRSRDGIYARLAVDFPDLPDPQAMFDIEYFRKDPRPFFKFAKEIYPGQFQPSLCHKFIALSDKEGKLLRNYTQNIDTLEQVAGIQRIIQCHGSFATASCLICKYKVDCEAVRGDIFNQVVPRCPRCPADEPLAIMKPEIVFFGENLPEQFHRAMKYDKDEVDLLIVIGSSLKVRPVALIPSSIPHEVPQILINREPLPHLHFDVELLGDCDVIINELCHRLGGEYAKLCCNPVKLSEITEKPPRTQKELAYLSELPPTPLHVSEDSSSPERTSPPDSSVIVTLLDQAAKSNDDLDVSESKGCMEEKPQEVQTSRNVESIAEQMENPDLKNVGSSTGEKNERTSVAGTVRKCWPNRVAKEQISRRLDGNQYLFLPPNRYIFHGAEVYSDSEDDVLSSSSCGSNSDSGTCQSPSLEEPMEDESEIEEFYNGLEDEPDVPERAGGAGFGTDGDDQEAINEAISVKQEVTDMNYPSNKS
Experimental: Inhibition assays with purified SIRT1, SIRT2, and SIRT3. GST-SIRT1 that could be produced in a laboratory was used for the SIRT1 inhibition assay. SIRT2 and SIRT3 are obtainable from commercial sources known to those skilled in the art. Consistent HPLC-based assay procedures were used for the inhibition assays with SIRT1, SIRT2, and SIRT3. […] An enzymatic reaction was initiated by the addition of an enzyme at 37° C. and was allowed to be incubated at 37° C.: 10 minutes as follows: for SIRT1 assay, or 60 minutes for SIRT2 and SIRT3 assays. Incubation was quenched at the indicated time with the following stop solution: 100 mM HCl and 0.16 M acetic acid. […] All peptide stock solutions were prepared in ddH2O. IC50 values were estimated from Dixon plots (1/v0 vs. [inhibitor]) as an indication of the inhibition potency.

[2] = biological target: T2, SIRT2 (Homo sapiens, UniProt Q8IXJ6); test: HPLC-based SIRT2 inhibition assay with purified SIRT2; format: biochemical; conditions: SIRT2 vs SIRT1
T2 construct: purchased
T2 sequence (Q8IXJ6 1-389): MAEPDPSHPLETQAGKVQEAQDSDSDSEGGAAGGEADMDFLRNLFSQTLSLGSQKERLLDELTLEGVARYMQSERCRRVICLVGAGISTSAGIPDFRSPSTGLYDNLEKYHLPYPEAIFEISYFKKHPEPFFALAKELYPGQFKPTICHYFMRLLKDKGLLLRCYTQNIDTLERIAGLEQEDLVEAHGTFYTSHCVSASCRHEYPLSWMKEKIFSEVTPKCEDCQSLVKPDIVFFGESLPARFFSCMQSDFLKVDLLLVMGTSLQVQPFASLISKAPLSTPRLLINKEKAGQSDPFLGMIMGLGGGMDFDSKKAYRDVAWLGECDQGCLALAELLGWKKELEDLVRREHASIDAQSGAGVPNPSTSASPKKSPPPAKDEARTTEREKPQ
Experimental: (§1) Inhibition assays with purified SIRT1, SIRT2, and SIRT3. GST-SIRT1 that could be produced in a laboratory was used for the SIRT1 inhibition assay. SIRT2 and SIRT3 are obtainable from commercial sources known to those skilled in the art. Consistent HPLC-based assay procedures were used for the inhibition assays with SIRT1, SIRT2, and SIRT3. In brief, an inhibition assay solution had the following components: 25 mM (or 50 mM for SIRT2 assay) Tris.HCl (pH 8.0) 137 mM NaCl, 2.7 mM KCl, 1 mM MgCl2, 1 mg/mL BSA (SIGMA Cat. #A3803 with reduced fatty acid content, for SIRT2 assay only), 0.5 mM β-NAD^+, 0.3 mM peptide substrate (peptide 1b for SIRT1 and SIRT2 assays; peptide 3b for SIRT3 assay), an inhibitor (peptide 1a, 2, or 3a) with varied concentrations including 0, and an enzyme (GST-SIRT1, 0.15 μM; SIRT2, 0.3 μM; or SIRT3, 2.0 μM). […] An enzymatic reaction was initiated by the addition of an enzyme at 37° C. and was allowed to be incubated at 37° C.: 10 minutes as follows: for SIRT1 assay, or 60 minutes for SIRT2 and SIRT3 assays. […] The enzymatic deacetylation products (peptide 1c in SIRT1 and SIRT2 assays; peptide 3c in SIRT3 assay) were confirmed by their comigration with the chemically synthesized authentic samples and by MALDI-TOF mass spectrometric analysis, and were quantified by HPLC peak integration and comparison with those of synthetic authentic samples. […]

[3] = biological target: T3, HDAC8 (Homo sapiens, UniProt Q9BY41); conditions: inventors' earlier work, Fatkins et al.; cited from earlier work
T3 construct: purchased
T3 sequence (Q9BY41 1-377): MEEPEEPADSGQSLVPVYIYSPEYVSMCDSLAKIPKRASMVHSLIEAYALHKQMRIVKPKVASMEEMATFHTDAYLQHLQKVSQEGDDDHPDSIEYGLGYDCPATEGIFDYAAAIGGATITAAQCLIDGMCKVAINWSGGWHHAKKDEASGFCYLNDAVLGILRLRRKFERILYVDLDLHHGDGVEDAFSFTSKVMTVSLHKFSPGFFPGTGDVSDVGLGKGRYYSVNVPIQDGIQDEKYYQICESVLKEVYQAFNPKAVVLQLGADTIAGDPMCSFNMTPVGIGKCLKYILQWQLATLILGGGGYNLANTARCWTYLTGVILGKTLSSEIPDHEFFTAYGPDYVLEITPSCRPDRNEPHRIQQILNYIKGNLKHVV

[4] = biological target: T4, SIRT3 (Homo sapiens, UniProt Q9NTG7); test: HPLC-based SIRT3 inhibition assay with purified SIRT3; format: biochemical; conditions: SIRT3 vs SIRT1
T4 construct: purchased
T4 sequence (Q9NTG7 1-399): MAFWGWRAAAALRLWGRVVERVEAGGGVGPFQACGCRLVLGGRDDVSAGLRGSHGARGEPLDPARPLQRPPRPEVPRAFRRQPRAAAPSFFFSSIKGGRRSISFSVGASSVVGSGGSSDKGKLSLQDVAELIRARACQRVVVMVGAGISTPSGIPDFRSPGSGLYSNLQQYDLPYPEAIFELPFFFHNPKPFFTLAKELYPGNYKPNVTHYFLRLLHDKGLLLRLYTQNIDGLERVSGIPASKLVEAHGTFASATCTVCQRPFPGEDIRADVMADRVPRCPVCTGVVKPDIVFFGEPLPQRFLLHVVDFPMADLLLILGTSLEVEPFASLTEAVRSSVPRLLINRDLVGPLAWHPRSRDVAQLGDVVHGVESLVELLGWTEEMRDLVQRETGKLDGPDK
Experimental: as §1

[5] = test system: SIRT1, SIRT2, and SIRT3; test: Dethioacetylation of inhibitor peptides under the sirtuin inhibition assay conditions; format: biochemical, human; conditions: same assay conditions as SIRT1/SIRT2/SIRT3 inhibition assays
Experimental: Inhibition assays with purified SIRT1, SIRT2, and SIRT3. GST-SIRT1 that could be produced in a laboratory was used for the SIRT1 inhibition assay. SIRT2 and SIRT3 are obtainable from commercial sources known to those skilled in the art. Consistent HPLC-based assay procedures were used for the inhibition assays with SIRT1, SIRT2, and SIRT3. In brief, an inhibition assay solution had the following components: 25 mM (or 50 mM for SIRT2 assay) Tris.HCl (pH 8.0) 137 mM NaCl, 2.7 mM KCl, 1 mM MgCl2, 1 mg/mL BSA (SIGMA Cat. #A3803 with reduced fatty acid content, for SIRT2 assay only), 0.5 mM β-NAD^+, 0.3 mM peptide substrate (peptide 1b for SIRT1 and SIRT2 assays; peptide 3b for SIRT3 assay), an inhibitor (peptide 1a, 2, or 3a) with varied concentrations including 0, and an enzyme (GST-SIRT1, 0.15 μM; SIRT2, 0.3 μM; or SIRT3, 2.0 μM). […] An enzymatic reaction was initiated by the addition of an enzyme at 37° C. and was allowed to be incubated at 37° C.: 10 minutes as follows: for SIRT1 assay, or 60 minutes for SIRT2 and SIRT3 assays. Incubation was quenched at the indicated time with the following stop solution: 100 mM HCl and 0.16 M acetic acid. The conversion of the limiting substrate to the product was maintained at ≦12%. The quenched assay solutions were directly injected into a reversed-phase HPLC C18 column (100 Å, 0.46×25 cm), eluting with the following gradients of ddH2O containing 0.05% (v/v) trifluoroacetic acid (mobile phase A) and acetonitrile containing 0.05% (v/v) trifluoroacetic acid (mobile phase B): linear increase from 0% B to 35% B (for SIRT1 assay) or 40% B (for SIRT2 and SIRT3 assays) from 0-40 minutes (1 mL/min), and UV monitoring at 214 nm. The enzymatic deacetylation products (peptide 1c in SIRT1 and SIRT2 assays; peptide 3c in SIRT3 assay) were confirmed by their comigration with the chemically synthesized authentic samples and by MALDI-TOF mass spectrometric analysis, and were quantified by HPLC peak integration and comparison with those of synthetic authentic samples. […] All peptide stock solutions were prepared in ddH2O. […]

[6] = biological target: T3, HDAC8; test: HPLC-based assay with purified HDAC8 (de(thio)acetylation of peptides); format: biochemical; design: key to HDAC8 (sensitive / resistant to HDAC8): +: Sensitive to HDAC8; —: Resistant to HDAC8; conditions: enzymatic dethioacetylation by HDAC8
Experimental: To test the foregoing premise, peptides 1b, 2, and 3a were allowed to be incubated for 2 hours at room temperature in the HDAC8 assay buffer in a HPLC-based HDAC8 assay. […] FIG. 5 provides representative HPLC chromatograms from HDAC8 assays with peptides 1b, 2, and 3a. All assays were performed in duplicate and essentially the same HPLC chromatograms were obtained for the duplicates. The small peak with tR˜27 minutes in the second chromatogram was from a minor impurity in the purified peptide 2 sample, rather than the dethioacetylated product. The lack of detectable dethioacetylation of peptide 3a was apparent from the absence of a peak with tR˜34 minutes, shown for peptide 3c in the third chromatogram.
Assay with purified HDAC8. The purified HDAC8 could be obtained from a commercial source for use with a HPLC-based HDAC8 assay. In brief, a HDAC8 assay solution had the following components: 25 mM Tris.HCl (pH 8.0), 137 mM NaCl, 2.7 mM KCl, 1 mM MgCl2, 1 mg/mL BSA (SIGMA Cat. #A3803 with reduced fatty acid content), 0.3 mM peptide 1b, 2, or 3a, and 1.5 μM HDAC8. […] An enzymatic reaction was initiated by the addition of HDAC8 at room temperature and was allowed to be incubated at room temperature for 2 hours before being quenched with the following stop solution: 1.0 M HCl and 0.16 M acetic acid. The quenched assay solutions were directly injected into a reversed-phase HPLC C18 column (100 Å, 0.46×25 cm), eluting with the following gradients of ddH2O containing 0.05% (v/v) trifluoroacetic acid (mobile phase A) and acetonitrile containing 0.05% (v/v) trifluoroacetic acid (mobile phase B): linear increase from 0% B to 35% B (for the assay with peptide 2 or 1b) or 40% B (for the assay with peptide 3a or […]) from 0-40 minutes (1 mL/min), and UV monitoring at 214 nm. […] The enzymatically formed peptide 1c was confirmed by its comigration with the chemically synthesized authentic sample and by MALDI-TOF mass spectrometric analysis, and was quantified by HPLC peak integration and comparison with that of synthetic authentic sample.

CC(=S)NCCCC[C@H](NC(=O)OCC1c2ccccc2-c2ccccc21)C(=O)O [N^α-Fmoc-N^ε-thioacetyl-lysine, L-N^α-Fmoc-N^ε-thioacetyl-lysine]
IC25 for SIRT1 ([1]; concentration to achieve 25% inhibition): 2,000 uM | IC25 SIRT1 ([1]; concentration to achieve 25% inhibition, 0.5 mM β-NAD+, 0.3 mM peptide substrate): 2,000 (IC25) μM

CC(=O)N[C@@H](CCCCNC(C)=S)C(=O)O [N^α-acetyl-N^ε-thioacetyl-lysine, L-N^α-acetyl-N^ε-thioacetyl-lysine]
SIRT1 inhibition at 2 mM [1]: No inhibition | SIRT1 inhibition at 2 mM ([1]; listed as L-N^α-acetyl-N^ε-thioacetyl-lysine): did not exhibit any SIRT1 inhibition

CSCC[C@H](NC(=O)[C@H](CC(C)C)NC(=O)[C@H](CCCCNC(C)=S)NC(=O)[C@H](CCCCN)NC(=O)[C@H](Cc1c[nH]cn1)NC(=O)[C@H](CCCNC(=N)N)NC(=O)[C@H](CO)NC(=O)[C@@H](NC(=O)[C@H](CO)NC(=O)[C@H](CCC(N)=O)NC(=O)CNC(=O)[C@H](CCCCN)NC(=O)[C@@H](N)CCCCN)[C@@H](C)O)C(=O)N[C@@H](Cc1ccccc1)C(=O)N[C@@H](CCCCN)C(=O)N[C@H](C(=O)N[C@@H](CCC(=O)O)C(=O)NCC(=O)O)[C@@H](C)O [Peptide 1a]
inhibition potency against SIRT2 relative to that against SIRT1 [2]: comparable inhibition potency | de(thio)acetylation by HDAC8 (previously demonstrated) [3]: comparably de(thio)acetylated by HDAC8 | inhibition potency weaker against SIRT3 than against SIRT1 [4]: approximately 35 fold | formation of dethioacetylated peptide under sirtuin inhibition assay conditions [5]: did not give rise to detectable formation | HDAC8 (sensitive / resistant to HDAC8) [6]: +^c

CSCC[C@H](NC(=O)[C@H](CC(C)C)NC(=O)[C@H](CCCCNC(C)=S)NC(=O)[C@H](CCCCN)NC(=O)[C@@H](N)Cc1c[nH]cn1)C(=O)O [Peptide 4] (H-HK[Lys(Thioacetyl)]LM-OH)
decrease in SIRT1 inhibition potency following truncation of peptide 1a ([1]; vs peptide 1a): approximately 6 fold

CSCC[C@H](NC(=O)[C@H](CC(C)C)NC(=O)[C@H](CCCCNC(C)=S)NC(=O)[C@H](CCCCN)NC(=O)[C@@H](N)Cc1cnc[nH]1)C(=O)O [Peptide 4] (H-HK[Lys(Thioacetyl)]LM-OH)
IC50 [1]: 10.4 ± 0.3 µM
